Like-named read-outs stand apart in the source and are kept apart here.
Assays:
[1] = test system: H460 cells; experiment: Alamar Blue antiproliferation assay, H460 cell line; assay type: cell-based, human
Procedure: (§1) To determine the effect of the compounds of the present invention on cell proliferation, the antiproliferative activity of these compounds was tested in a multi-well Alamar Blue based assay (at 2 h and 3 days). Cell growth in the presence and absence of the test compound as tabulated in Table 1 was compared, as measured by a fluorescence plate reader at excitation 550 nm and emission 590 nm (see Biosource International Inc., Tech Application Notes, Use of Alamar Blue in the measurement of Cell Viability and Toxicity, Determining IC50). H460 cells (ATCC HTB-177 ([…]), 4,000 cells/well/200 μl) and LNCap cells (ATCC CRL-1740, 6,000 cells/well/200 μl) were seeded in a 96 well plate in RPMI medium (Invitrogen Corporation, Carlsbad, Calif.). After 24 hours, these plates were divided into 3 groups—Control group, 2 h treatment group and 3 day treatment group.
(§2) In the 2 h treatment group, after 2 h the cells were rinsed to remove the test compound and incubated for 3 days, followed by staining with AlamarBlue. The cells in the 3-day treatment group were incubated for 3 days, followed by staining with AlamarBlue. In the Control group, AlamarBlue was added to the plate at (i) day 0 and (ii) day 3 and measured to establish the control reading. In all the groups, the capacity of the cells to proliferate was measured 6 hours after addition of AlamarBlue by a fluorescence plate reader at excitation 550 nm and emission 590 nm.

[2] = test system: HT29; experiment: Alamar Blue antiproliferation assay, HT29; assay type: cell-based; details: Homo sapiens, HT-29, 72 h; HT29, 3 Day
[3] = test system: MES-SA; experiment: Alamar Blue antiproliferation assay, MES-SA; assay type: cell-based; details: Homo sapiens, 72 h, 3 Day
[4] = test system: MES-SA/DX5; experiment: Alamar Blue antiproliferation assay, MES-SA/DX5; assay type: cell-based; details: Homo sapiens, 72 h; MES-SA/DX5, 3 Day
[5] = test system: cancer cell; experiment: Cancer cell antiproliferation assay (cell line not stated); assay type: cell-based; details: summary statement; read-out: GI50 or IC50 in a cancer cell antiproliferation assay
Procedure: In one aspect, the present invention provides a compound of formula (I-VII) having a GI50, GI90, IC50, or IC50 of about 0.001 to about 1000 nM, about 0.01 to about 100 nm, about 0.1 to about 50 nM, and about 1 to about 10 nM in a cancer cell antiproliferation assay. In one embodiment, the present invention provides a compound of formula (I) having a GI50 or IC50 of about 0.01 to about 100 nm, about 0.1 to about 50 nm, and about 1 to about 10 nm in a cancer cell antiproliferation assay. In various embodiments, said antiproliferation assays employ cancer cell including but not limited to gastric, colon, breast, and non-small cell lung cancer. In various embodiments, the […] cancer cell used is MESSA or doxorubicin resistant MESSA/DX5 cell; the colon cancer cell is HT29 cell; the breast cancer cell is T47D cell; and the non-small cell lung cancer cell is H460 cell.
as §1, §2

[6] = Homo sapiens, NCI-H460, 2 h treatment, then 3 days incubation, read-out: GI50 (nM) 2 Hour
[7] = Homo sapiens, NCI-H460, 2 h treatment, then 3 days incubation, read-out: GI90 (nM) 2 Hour
[8] = Homo sapiens, NCI-H460, 72 h, 3 day treatment, read-out: GI50 (nM) 3 Days
[9] = Homo sapiens, NCI-H460, 72 h, 3 day treatment, read-out: GI90 (nM) 3 Day

| SMILES | GI50 [1, 6] | GI50 [1, 8] | further results |
| --- | --- | --- | --- |
| COc1ccc2c(/C(=N/N)c3cc(OC)c(OC)c(OC)c3)n[nH]c2c1 [Compound 10] | > 1000 nM | 398 nM | IC90 [1, 7]: > 1000 nM; IC90 [1, 9]: 1000 nM |
| COc1ccc2c(C(=O)c3cc(OC)c(OC)c(OC)c3)n(C)nc2c1 [Compound 13] | > 1000 nM | > 1000 nM | IC90 [1, 7]: > 1000 nM; IC90 [1, 9]: > 1000 nM |
| COc1ccc2[nH]nc(C(=O)c3cc(OC)c(OC)c(OC)c3)c2c1 [Compound 42] | > 1000 nM | > 1000 nM | IC90 [1, 7]: > 1000 nM; IC90 [1, 9]: > 1000 nM |
| COc1ccc2c(/C(=N/O)c3cc(OC)c(OC)c(OC)c3)n[nH]c2c1 [Compound 11] | > 1000 nM | 631 nM | IC90 [1, 7]: > 1000 nM; IC90 [1, 9]: > 1000 nM |
| COc1ccc2c(C(=O)c3cc(OC)c(OC)c(OC)c3)nn(S(=O)(=O)c3ccc(C)cc3)c2c1 [Compound 47] | – | 25 nM | – |
| C#Cc1c(OC)ccc2c(C(=O)c3cc(OC)c(OC)c(OC)c3)nn(CC(N)=O)c12 [Compound 73] | – | 630 nM | – |
| COc1cc(C(=O)c2n[nH]c3c(C#Cc4cccc(O)c4)c(OC)ccc23)cc(OC)c1OC [Compound 69] | – | 1000 nM | – |
| COc1cc(C(=O)c2n[nH]c3c(Cl)c(OC)ccc23)cc(OC)c1OC [Compound 21] | > 10000 nM | 40 nM | – |
| COc1ccc2c(C(=O)c3cc(OC)c(OC)c(OC)c3)n(CO)nc2c1 [Compound 81] | – | > 1000 nM | – |
| COc1cc(C(=O)c2n[nH]c3c(CCCCO)c(OC)ccc23)cc(OC)c1OC [Compound 61] | > 1000 nM | > 1000 nM | – |
| COc1ccc2c(C(=O)c3cc(OC)c(OC)c(OC)c3)nn(S(=O)(=O)Cc3ccc([N+](=O)[O-])cc3)c2c1 [Compound 33] | > 10000 nM | 1000 nM | – |
| COc1ccc2c(C(=O)c3cc(OC)c(OC)c(OC)c3)nn(C(=O)Cc3ccc(OCc4ccccc4)cc3)c2c1 [Compound 34] | > 10000 nM | 126 nM | – |
| COc1cc(C(=O)c2n[nH]c3c(C#CC(=O)O)c(OC)ccc23)cc(OC)c1OC [Compound 37] | 501 nM | 3.2 nM | GI50 [2]: 5 nM; GI50 [3]: 3.2 nM; GI50 [4]: 3.5 nM; IC50 [5]: 1 to 50 nM |
| COc1ccc2c(C(=O)c3cc(OC)c(OC)c(OC)c3)nn(C(=O)c3ccccc3)c2c1 [Compound 20] | 630 nM | 100 nM | – |
| COc1ccc2c(C(=O)c3cc(OC)c(OC)c(OC)c3Br)nn(S(=O)(=O)c3ccc(C)cc3)c2c1 [Compound 48] | – | 630 nM | – |
| COc1ccc2c(C(=O)c3cc(OC)c(OC)c(OC)c3)nn(P(=O)(OCc3ccccc3)OCc3ccccc3)c2c1 [Compound 27] | > 10000 nM | 251 nM | – |
| COc1cc(C(=O)c2n[nH]c3c(C#C[C@@H](C)O)c(OC)ccc23)cc(OC)c1OC [Compound 71] | – | – | GI50 ([1]; 3 day treatment, read-out: GI50 (nM) 3 Days): 12.5 nM |
| COc1cc(C(=O)c2n[nH]c3c(C(=O)O)c(OC)ccc23)cc(OC)c1OC [Compound 59] | > 1000 nM | 794 nM | – |
| COc1ccc2c(/C(=N/NC(C)=O)c3cc(OC)c(OC)c(OC)c3)n[nH]c2c1 [Compound 44] | > 5000 nM | 1580 nM | IC90 [1, 7]: > 5000 nM; IC90 [1, 9]: > 5000 nM |
| COc1cc(C(=O)c2nn(Cc3ncc([N+](=O)[O-])n3C)c3c(Br)c(OC)ccc23)cc(OC)c1OC [Compound 38] | > 10000 nM | 631 nM | – |
| COc1ccc2c(C(=O)c3cc(OC)c(OC)c(OC)c3)n(Cc3ccccc3)nc2c1 [Compound 17] | > 1000 nM | > 1000 nM | IC90 [1, 7]: > 1000 nM; IC90 [1, 9]: > 1000 nM |
| COc1ccc2c(C(=O)c3cc(OC)c(OC)c(OC)c3)nn(S(=O)(=O)c3ccc4ccccc4c3)c2c1 [Compound 26] | > 10000 nM | 630 nM | – |
| CCC(=O)n1nc(C(=O)c2cc(OC)c(OC)c(OC)c2)c2ccc(OC)cc21 [Compound 50] | > 10000 nM | 20 nM | – |
| COc1ccc2c(C(=O)c3cc(OC)c(OC)c(OC)c3N)n[nH]c2c1 [Compound 45] | – | 158 nM | – |
| COc1ccc2c(C(=O)c3cc(OC)c(OC)c(OC)c3)nn(CC(=O)O)c2c1 [Compound 62] | > 1000 nM | 630 nM | – |

| SMILES | GI50 [1, 6] | GI50 [1, 8] | further results |
| --- | --- | --- | --- |
| COc1ccc2c(C(=O)c3cc(OC)c(OC)c(OC)c3)n[nH]c2c1 [Compound 9] | > 1000 nM | 100 nM | IC90 [1, 7]: > 1000 nM; IC90 [1, 9]: 316 nM |
| COc1cc(C(=O)c2n[nH]c3c(C#CCNC(=O)C(F)(F)F)c(OC)ccc23)cc(OC)c1OC [Compound 52] | > 1000 nM | 100 nM | – |
| COc1ccc2c(C(=O)c3cc(OC)c(OC)c(OC)c3)nn(S(=O)(=O)c3ccc(N)cc3)c2c1 [Compound 24] | 10000 nM | 501 nM | – |
| COc1ccc2c(C(=O)c3cc(OC)c(OC)c(OC)c3)nn(C)c2c1 [Compound 12] | > 1000 nM | > 1000 nM | IC90 [1, 7]: > 1000 nM; IC90 [1, 9]: > 1000 nM |
| COc1ccc2c(C(=O)c3cc(OC)c(OC)c(OC)c3)nn(CC(N)=O)c2c1 [Compound 63] | > 1000 nM | 630 nM | – |
| COc1cc2[nH]nc(C(=O)c3cc(OC)c(OC)c(OC)c3)c2cc1OC [Compound 77] | – | > 1000 nM | – |
| COc1ccc2c(C(=O)c3cc(OC)c(OC)c(OC)c3)nn(CO)c2c1 [Compound 56] | > 10000 nM | 50.1 nM | – |
| COc1cc(C(=O)c2n[nH]c3c(S(=O)(=O)c4ccc(OCc5ccccc5)cc4)c(OC)ccc23)cc(OC)c1OC [Compound 31] | > 10000 nM | > 10000 nM | – |
| COc1cc(C(=O)c2n[nH]c3c(C#CC=O)c(OC)ccc23)cc(OC)c1OC [Compound 76] | – | 79.4 nM | – |
| COc1cc(C(=O)c2n[nH]c3c(CCC(C)(C)O)c(OC)ccc23)cc(OC)c1OC [Compound 65] | > 1000 nM | > 1000 nM | – |
| COc1ccc2c(C(=O)c3cc(OC)c(OC)c(OC)c3)nn(CCO)c2c1 [Compound 64] | > 1000 nM | 630 nM | – |
| COc1ccc2c(C(=O)c3cc(OC)c(OC)c(OC)c3)nn(S(=O)(=O)c3ccc([N+](=O)[O-])cc3)c2c1 [Compound 23] | 630 nM | 100 nM | – |
| C#Cc1c(OC)ccc2c(C(=O)c3cc(OC)c(OC)c(OC)c3)nn([C@@H]3OC(CO)[C@@H](O)[C@H](O)C3O)c12 (stereo partly shown) [Compound 80] | – | > 1000 nM | – |
| COc1ccc2c(c1)N=N/C2=C/c1cc(OC)c(OC)c(OC)c1 [Compound 19] | > 10000 nM | > 1000 nM | IC90 [1, 7]: > 1000 nM; IC90 [1, 9]: > 1000 nM |
| COc1cc(C(=O)c2n[nH]c3c(I)c(OC)ccc23)cc(OC)c1OC [Compound 22] | > 10000 nM | 40 nM | – |
| COc1ccc2c(C(=O)c3cc(OC)c(OC)c(OC)c3)nn(S(=O)(=O)c3ccc(O)cc3)c2c1 [Compound 29] | > 10000 nM | 630 nM | – |
| C#Cc1c(OC)ccc2c(C(=O)c3cc(OC)c(OC)c(OC)c3)nn(C(=O)OCc3ccc([N+](=O)[O-])o3)c12 [Compound 75] | – | > 1000 nM | – |
| COc1cc(C(=O)c2n[nH]c3c(C#CC(C)(C)O)c(OC)ccc23)cc(OC)c1OC [Compound 36] | > 10000 nM | 63 nM | – |
| COc1ccc2c3n(nc2c1)Cc1c(cc(OC)c(OC)c1OC)C3=O [Compound 32] | > 10000 nM | > 10000 nM | – |
| COc1cc(C(=O)c2n[nH]c3c(C#CCN)c(OC)ccc23)cc(OC)c1OC [Compound 53] | 630 nM | 158 nM | – |
| COc1ccc2c(C(=O)c3cc(OC)c(OC)c(OC)c3)nn(S(=O)(=O)c3cccc4ccccc34)c2c1 [Compound 25] | > 10000 nM | 630 nM | – |
| COc1ccc2c(C(=O)c3cc(OC)c(OC)c(OC)c3)nn(P(=O)(OC)OC)c2c1 [Compound 49] | – | 15.8 nM | – |
| COc1cc(C(=O)c2n[nH]c3ccc(F)cc23)cc(OC)c1OC [Compound 43] | > 10000 nM | > 10000 nM | IC90 [1, 7]: > 1000 nM; IC90 [1, 9]: > 1000 nM |
| C#Cc1c(OC)ccc2c(C(=O)c3cc(OC)c(OC)c(OC)c3)nn(CC(=O)O)c12 [Compound 74] | – | > 1000 nM | – |

From US20090042820A1, “Tubulin Binding Anti Cancer Agents And Prodrugs Thereof” (Threshold Pharmaceuticals, Inc., priority 2004, published 2009)
